{
  "source": "patent US11565998B2",
  "about": "“Succinate prodrug, compositions containing the succinate prodrug and uses thereof” (ABLIVA AB, priority 2019, dated 2023)",
  "tested_on": "rotenone-mediated inhibition of complex 1",
  "experiment": "Pig model of rotenone induced mitochondrial complex 1 dysfunction",
  "type": "in vivo, Yorkshire landrace hybrid pigs",
  "settings": "rotenone infusion 7.1 mg/hr for 1.5 hours, below quantification",
  "description": "To study the effect of rotenone-mediated inhibition of complex 1, Yorkshire landrace hybrid pigs were anaesthetised and implanted with venous catheters for simultaneous infusion of rotenone and Compound 1 or vehicle (PBS). Rotenone (7.1 mg/hr) was infused during 1.5 hours. Compound 1 was infused at a constant rate of 2 mg/kg/min over a period of 2.5 hours. The control animal was infused with PBS. Blood samples were taken with 30 min intervals and plasma was separated by centrifugation. Microdialysates were collected by inserting a microdialysis probe into the striatum of the brain and analysed for lactate using an ISCUS instrument (MDialysis). At the end of infusion, the animal was euthanised and terminal blood and organ samples were collected. Plasma and tissue samples were stored frozen and later analysed for succinate in an LC/MS method using a Thermo Vanquish UPLC+Thermo Quantis triple quadrupole MS instrument, an Acquity UPLC HSS C18 (100×2.1 mm, 1.8 μm) column with guard filter and gradient elution; A=0.1% Formic acid, B=Acetonitrile. [13C]-labelled succinate was used as internal standard. Lactate data were expressed as percentage of the baseline value obtained before start of rotenone infusion.",
  "data": [
    {"smiles": "C=C(C)[C@H]1Cc2c(ccc3c2O[C@@H]2COc4cc(OC)c(OC)cc4[C@@H]2C3=O)O1", "note": "[Rotenone]", "values": [
      {"measurement": "tissue concentrations of succinate", "result": "< 2", "unit": "µM"}
    ]}
  ]
}
